Measured values published in patent US20240424010A1, “NICOTINAMIDE RIBOSIDE TRIOLEATES CHLORIDE, COMPOSITIONS CONTAINING THIS COMPOUND, AND METHODS OF MAKING AND USING THIS COMPOUND” (SOCIETE DES PRODUITS NESTLE S.A., priority 2021, published 2024).
“Also recorded” adds a separate entry of the source.

Assays:
Assay type in all cases: physicochemical
[1] = Solubility of NRTOCl in water and in canola, corn and MCT oil
Method: 2154 mg of canola oil was added to a 15 mL falcon tube containing 380 mg of NRTOCl. Then, the tube was placed in a water bath and was shaken at around 35° C. until NRTOCl was completely dissolved in canola oil. After dissolving NRTOCl in canola oil, the sample was kept at room temperature for the next studies. […] Although NRTOCl is a quaternary ammonium salt, it was not dissolved in water due to the existence of three groups of oleate fatty ester in its structure. Therefore, for the stability study of NRTOCl, this compound was dispersed in DI water using 1% ethanol as a cosolvent. For this purpose, 15 mg of NRTOCl was dissolved in 0.15 ml of ethanol (1%) and then 14.85 ml of DI water was added to the mixture and gently shaken. […] Although the average size of NRTOCl in this sample was 192 nm, the images of TEM disclosed smaller particles with around 50 nm and oval and spherical shapes with aspect ratio close to unity (FIGS. 10A-10C). In the nanoparticles, the NRTOCl structures are stacked on top of each other layer-by-layer. The highly positive charge of NRTO makes the nanoparticles stable in the aqueous phase.

[2] = Stability of NRTOCl and NRCl in DI water at 35° C. for 28 days (released nicotinamide by HPLC)
Method: Although NRTOCl is a quaternary ammonium salt, it was not dissolved in water due to the existence of three groups of oleate fatty ester in its structure. Therefore, for the stability study of NRTOCl, this compound was dispersed in DI water using 1% ethanol as a cosolvent. For this purpose, 15 mg of NRTOCl was dissolved in 0.15 ml of ethanol (1%) and then 14.85 ml of DI water was added to the mixture and gently shaken. […] Although the average size of NRTOCl in this sample was 192 nm, the images of TEM disclosed smaller particles with around 50 nm and oval and spherical shapes with aspect ratio close to unity (FIGS. 10A-10C). In the nanoparticles, the NRTOCl structures are stacked on top of each other layer-by-layer. The highly positive charge of NRTO makes the nanoparticles stable in the aqueous phase. After dispersion of NRTOCl in DI water, NRCl was dissolved in DI water, and the stability of these samples were studied at 35° C. for 28 days (FIG. 11). The concentration of each sample was 1000 ppm. As during the hydrolysis reaction of NRTO and NR, both of these compounds released nicotinamide (FIG. 12), and by measuring the released amount of nicotinamide in each sample with HPLC, the remaining amounts of NRTO and NR in each sample were calculated. During this study, any release of NR from NRTO sample was not detected. It signifies that the heavy ester groups in NRTO sample are not hydrolyzed during the time of stability study. Because this study was performed in DI water and the conditions were mild, the NRTO was hydrolyzed from its N-glycoside bond.

[3] = Hydrolysis stability of NRTOCl and NRCl oil-in-water emulsions and NRCl in water at 35° C. for 26 days; details: 35° C., 26 days; for times more stable than NR(Cl) in emulsion: canola oil-in-water emulsion with sodium caseinate
Method: The emulsion was prepared using 480 mg of oil stock containing 15 wt. % NRTOCl in canola oil and an aqueous phase (14.52 g) of Na-caseinate (2 wt. %), KCl (0.3 wt. %), NaCl (0.1 wt. %), CaCl2 (0.2 wt. %) and NaN3 (0.01 wt. %).
The emulsion was-prepared using 480 mg of oil stock containing 15 wt. % NRTOCl in canola oil and 0.025 g of lecithin. The aqueous phase (14.5 g) contained Na-caseinate (2 wt. %), KC (0.3 wt. %), NaCl (0.1 wt. %), CaCl2 (0.2 wt. %) and NaN3 (0.01 wt. %).
The emulsion was-prepared using 480 mg of oil stock containing 15 wt. % NRTOCl in canola oil and an aqueous phase (14.52 g) of polysorbate 80 (Tween 80) (2 wt. %).
The emulsion was prepared using around 480 mg of canola oil in an aqueous phase (14.52 g) of NRCl (19 mg), Na-caseinate (2 wt. %), KCl (0.3 wt. %), NaCl (0.1 wt. %), CaCl2 (0.2 wt. %) and NaN3 (0.01 wt. %).
After each specific time of stability for NRTOCl and NRCl emulsions, 1.5 mL of each emulsion was centrifuged (14,000 rpm) for 20 minutes at room temperature.
Since NRTOCl is a very hydrophobic compound, to evaluate its stability in oil phase, an emulsion system was used to study the stability of NRTOCl as a function of time. For this purpose, a 15% w/w solution of NRTOCl in canola oil was used for making different emulsions with Na-caseinate, Tween 80 and lecithin as the emulsifiers (2 wt. %) at room temperature.
When Na-caseinate was used as an emulsifier, the aqueous phase must be a solution of NaCl (0.1 wt. %), CaCl2 (0.2 wt. %) and KCl (0.3 wt. %) because caseinate anion with minus charge and NRTO with positive charge immediately aggregated in DI water. The total oil phase in these emulsions were 3.2 wt. %, and the concentration of NRTOCl in total volume of each emulsion (15 mL) was 4.4 mM. In the emulsions that used Na-caseinate as an emulsifier, NaN3 (0.01 wt. %) was added to prevent the growth of bacteria. When the NRTOCl emulsion was made by 2 wt. % Na-caseinate, its average size and zeta potential in this emulsion (Cas emulsion) were 1020 nm and −14.4 mV respectively.
After making NRTOCl emulsions, a NRCl in canola oil-in-water emulsion was attempted as a control experiment using 3.2% canola oil. The aqueous phase was a solution of Na-caseinate (2 wt. %), NaCl (0.1 wt. %), CaCl2 (0.2 wt. %), KCl (0.3 wt. %) and NaN3 (0.01 wt. %). The concentration of NRCl in total volume (15 mL) of this emulsion was 4.4 mM. Moreover, 15 mL of NRCl solution in DI water was prepared with 4.4 mM concentration as the other control experiment. After preparing three NRTOCl emulsions and two control experiment samples, hydrolysis stability of each sample was studied at 35° C. for 26 days (FIG. 14). The rate of degradation was measured by determination of the released nicotinamide from each sample. […]

appearance of 15 wt. % solution in canola oil during storage ([1]; 15 wt. % NRTOCl in canola oil, room temperature): stable and clear without any sediment
solubility in canola oil ([1]; canola oil): easily dissolved
solubility in canola, corn and MCT oil ([1]; room temperature): easily dissolved
release of NR from NRTO sample (ester hydrolysis) during stability study ([2]; DI water): not detected
remaining amount after 28 days ([2]; DI water, 1000 ppm, 28 days): 53.3%
times more stable than NRCl in water ([2]; 28 days): 88 times
times more stable than NRCl in water ([2]; 28 days, listed as NRTO): more than 88 times
times more stable than NR(Cl) in emulsion [3]: 213 times
times more stable than NR(Cl) in emulsion ([3]; listed as NRTO): about 213 times
remaining amount after 26 days in emulsion ([3]; canola oil-in-water emulsion, 4.4 mM): 93.7%
Compound: CCCCCCCC/C=C\CCCCCCCC(=O)OC[C@H]1O[C@@H]([n+]2cccc(C(N)=O)c2)[C@H](OC(=O)CCCCCCC/C=C\CCCCCCCC)[C@@H]1OC(=O)CCCCCCC/C=C\CCCCCCCC.[Cl-] [NRTOCl, nicotinamide riboside trioleates chloride]
solubility in water ([1]; water): not soluble in water; also recorded: not dissolved; also recorded: water insoluble
